pIC50: −log10 of the molar value.

For the assay, the target named is T1, Human Factor XIIa (Homo sapiens, UniProt P00748).
T1 construct: purchased Enzyme Research Laboratories
T1 sequence (P00748 373-615 limits assumed): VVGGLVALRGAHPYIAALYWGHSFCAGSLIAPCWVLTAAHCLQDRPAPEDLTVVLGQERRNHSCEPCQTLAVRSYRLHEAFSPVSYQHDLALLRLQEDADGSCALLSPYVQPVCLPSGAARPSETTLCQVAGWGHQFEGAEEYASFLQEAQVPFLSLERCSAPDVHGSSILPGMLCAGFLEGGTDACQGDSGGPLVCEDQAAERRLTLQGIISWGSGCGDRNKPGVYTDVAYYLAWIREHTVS
T1 sequence (P00748 20-372 partner limits assumed): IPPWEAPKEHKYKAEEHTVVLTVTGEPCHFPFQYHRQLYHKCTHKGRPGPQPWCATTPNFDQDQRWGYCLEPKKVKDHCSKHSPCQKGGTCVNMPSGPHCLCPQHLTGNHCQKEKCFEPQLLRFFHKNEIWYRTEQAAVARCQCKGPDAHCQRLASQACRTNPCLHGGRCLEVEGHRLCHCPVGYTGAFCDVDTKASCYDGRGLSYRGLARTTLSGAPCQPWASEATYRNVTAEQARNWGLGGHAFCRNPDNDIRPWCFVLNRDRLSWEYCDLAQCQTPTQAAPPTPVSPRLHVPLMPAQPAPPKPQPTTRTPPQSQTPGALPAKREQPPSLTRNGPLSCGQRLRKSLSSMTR
In words: Determination of FXIIa inhibition (in vitro IC50 assay, fluorogenic substrate H-DPro-Phe-Arg-AFC). Format: biochemical. The note with it: human Factor XIIa; fluorogenic substrate H-DPro-Phe-Arg-AFC at Km concentration; 5 min, 25 °C; class symbols; read-out: Human FXIIa IC50. As to the method: In vitro inhibition of Factor XIIa was determined using an IC50 assay based on standard literature methods (see e.g Baeriswyl et al., ACS Chem. Biol., 2015, 10 (8) 1861; Bouckaert et al., European Journal of Medicinal Chemistry 110 (2016) 181). Human Factor XIIa (Enzyme Research Laboratories) was incubated at 25 °C with the fluorogenic substrate H-DPro-Phe-Arg-AFC (Peptide Protein Science) and various concentrations of the test compound. Protease activity was measured by monitoring the accumulation of liberated fluorescence from the substrate over 5 min at 25 °C. The linear rate of fluorescence increase per minute was expressed as percentage (%) activity. The Km for the cleavage of the substrate by FXIIa was determined by standard transformation of the Michaelis-Menten equation. The compound inhibitor assays were performed at substrate Km concentration. IC50 values were calculated as the concentration of inhibitor giving 50% inhibition (IC50) of the uninhibited enzyme activity (100%).
Take `Cn1ccc(OCC23CN(C(=O)N[C@@H]4C[C@H]4c4ccccc4)C(CNc4cccc5c(N)nccc45)(C2)C3)cc1=O` (racemic) [Example 60, rac-1-(((1-aminoisoquinolin-5-yl)amino)methyl)-4-(((1-methyl-2-oxo-1,2-dihydropyridin-4-yl)oxy)methyl)-N-((1R,2S)-2-phenylcyclopropyl)-2-azabicyclo[2.1.1]hexane-2-carboxamide]: the pIC50 is 8.00 to 9.00.
With `CO[C@H]1CC[C@H](CC(=O)N2CC3(COc4cc(C)n(C)c(=O)c4)CC2(CNc2cccc4c(N)nccc24)C3)CC1` (single isomer, unassigned) [Example 24, 4-((1-(((1-aminoisoquinolin-5-yl)amino)methyl)-2-(2-((1r,4r)-4-methoxycyclohexyl)acetyl)-2-azabicyclo[2.1.1]hexan-4-yl)methoxy)-1,6-dimethylpyridin-2(1H)-one] the figure was 7.00 to 8.00.
The same measure for `CO[C@H]1CC[C@@H](CC(=O)N2CC3(COc4cc(C)n(C)c(=O)c4)CC2(CNc2cccc4c(N)nccc24)C3)CC1` (single isomer, unassigned) [Example 25, 4-((1-(((1-aminoisoquinolin-5-yl)amino)methyl)-2-(2-((1s,4s)-4-methoxycyclohexyl)acetyl)-2-azabicyclo[2.1.1]hexan-4-yl)methoxy)-1,6-dimethylpyridin-2(1H)-one]: 7.00 to 8.00; for `Nc1nccc2c(NCC34CC(c5ncc(-c6ccccc6)o5)(CO3)C4)cccc12` [Example 1, N5-((4-(5-Phenyloxazol-2-yl)-2-oxabicyclo[2.1.1]hexan-1-yl)methyl)isoquinoline-1,5-diamine]: 4.00 to 4.40; for `Nc1nccc2c(NCC34CC(CN5C(=O)CC[C@H]5c5ccccc5)(CO3)C4)cccc12` [Example 2, (S)-1-((1-(((1-aminoisoquinolin-5-yl)amino)methyl)-2-oxabicyclo[2.1.1]hexan-4-yl)methyl)-5-phenylpyrrolidin-2-one]: 5.00 to 5.52.
The same measure for `Cn1ccc(OCC23CN(C(=O)Cc4ccc5c(c4)CCO5)C(CNc4cccc5c(N)nccc45)(C2)C3)cc1=O` [Example 3, 4-((1-(((1-aminoisoquinolin-5-yl)amino)methyl)-2-(2-(2,3-dihydrobenzofuran-5-yl)acetyl)-2-azabicyclo[2.1.1]hexan-4-yl)methoxy)-1-methylpyridin-2(1H)-one]: 8.00 to 9.00.
As to `Cn1ccc(OCC23CN(C(=O)C(C)(C)Oc4ccccc4)C(CNc4cccc5c(N)nccc45)(C2)C3)cc1=O` [Example 4, 4-((1-(((1-aminoisoquinolin-5-yl)amino)methyl)-2-(2-methyl-2-phenoxypropanoyl)-2-azabicyclo[2.1.1]hexan-4-yl)methoxy)-1-methylpyridin-2(1H)-one], the pIC50 was 6.52 to 7.00.
With `Cn1ccc(OCC23CN(C(=O)C4(Oc5ccccc5)CC4)C(CNc4cccc5c(N)nccc45)(C2)C3)cc1=O` [Example 6, 4-((1-(((1-aminoisoquinolin-5-yl)amino)methyl)-2-(1-phenoxycyclopropane-1-carbonyl)-2-azabicyclo[2.1.1]hexan-4-yl)methoxy)-1-methylpyridin-2(1H)-one] the figure was 6.52 to 7.00.
With `Cn1ccc(OCC23CN(C(=O)C(C)(C)Cc4ccccc4)C(CNc4cccc5c(N)nccc45)(C2)C3)cc1=O` [Example 7, 4-((1-(((1-aminoisoquinolin-5-yl)amino)methyl)-2-(2,2-dimethyl-3-phenylpropanoyl)-2-azabicyclo[2.1.1]hexan-4-yl)methoxy)-1-methylpyridin-2(1H)-one] the figure was 6.52 to 7.00.
With `Cn1ccc(OCC23CN(C(=O)C4(Cc5ccccc5)CC4)C(CNc4cccc5c(N)nccc45)(C2)C3)cc1=O` [Example 8, 4-((1-(((1-aminoisoquinolin-5-yl)amino)methyl)-2-(1-benzylcyclopropane-1-carbonyl)-2-azabicyclo[2.1.1]hexan-4-yl)methoxy)-1-methylpyridin-2(1H)-one] the figure was 7.00 to 8.00; with `Cn1ccc(OCC23CN(C(=O)CC4CCOCC4)C(CNc4cccc5c(N)nccc45)(C2)C3)cc1=O` [Example 9, 4-((1-(((1-aminoisoquinolin-5-yl)amino)methyl)-2-(2-(tetrahydro-2H-pyran-4-yl)acetyl)-2-azabicyclo[2.1.1]hexan-4-yl)methoxy)-1-methylpyridin-2(1H)-one], 7.00 to 8.00.
For the compound `Cn1ccc(OCC23CN(C(=O)C[C@H]4CCOC4)C(CNc4cccc5c(N)nccc45)(C2)C3)cc1=O` [Example 10, (R)-4-((1-(((1-aminoisoquinolin-5-yl)amino)methyl)-2-(2-(tetrahydrofuran-3-yl)acetyl)-2-azabicyclo[2.1.1]hexan-4-yl)methoxy)-1-methylpyridin-2(1H)-one], the pIC50 is 7.00 to 8.00.
The same measure for `Cn1ccc(OCC23CN(C(=O)C[C@@H]4CCOC4)C(CNc4cccc5c(N)nccc45)(C2)C3)cc1=O` [Example 11, (S)-4-((1-(((1-aminoisoquinolin-5-yl)amino)methyl)-2-(2-(tetrahydrofuran-3-yl)acetyl)-2-azabicyclo[2.1.1]hexan-4-yl)methoxy)-1-methylpyridin-2(1H)-one]: 7.00 to 8.00; for `C[C@@H](C(=O)N1CC2(COc3ccn(C)c(=O)c3)CC1(CNc1cccc3c(N)nccc13)C2)c1ccccc1` [Example 12, (R)-4-((1-(((1-aminoisoquinolin-5-yl)amino)methyl)-2-(2-phenylpropanoyl)-2-azabicyclo[2.1.1]hexan-4-yl)methoxy)-1-methylpyridin-2(1H)-one]: 7.00 to 8.00.
With `C[C@H](C(=O)N1CC2(COc3ccn(C)c(=O)c3)CC1(CNc1cccc3c(N)nccc13)C2)c1ccccc1` [Example 13, (S)-4-((1-(((1-aminoisoquinolin-5-yl)amino)methyl)-2-(2-phenylpropanoyl)-2-azabicyclo[2.1.1]hexan-4-yl)methoxy)-1-methylpyridin-2(1H)-one] the figure was 7.00 to 8.00.
For the compound `Cn1ccc(OCC23CN(C(=O)CCc4ccc5c(c4)CCO5)C(CNc4cccc5c(N)nccc45)(C2)C3)cc1=O` [Example 14, 4-((1-(((1-aminoisoquinolin-5-yl)amino)methyl)-2-(3-(2,3-dihydrobenzofuran-5-yl)propanoyl)-2-azabicyclo[2.1.1]hexan-4-yl)methoxy)-1-methylpyridin-2(1H)-one], the negative-log IC50 (pIC50) was 7.00 to 8.00.
The same measure for `Cn1ccc(OCC23CN(C(=O)Cc4ccc5c(c4)CCCO5)C(CNc4cccc5c(N)nccc45)(C2)C3)cc1=O` [Example 15, 4-((1-(((1-Aminoisoquinolin-5-yl)amino)methyl)-2-(2-(chroman-6-yl)acetyl)-2-azabicyclo[2.1.1]hexan-4-yl)methoxy)-1-methylpyridin-2(1H)-one]: 8.00 to 9.00; for `CC(=O)N1CCC(CC(=O)N2CC3(COc4ccn(C)c(=O)c4)CC2(CNc2cccc4c(N)nccc24)C3)CC1` [Example 16, 4-((2-(2-(1-acetylpiperidin-4-yl)acetyl)-1-(((1-aminoisoquinolin-5-yl)amino)methyl)-2-azabicyclo[2.1.1]hexan-4-yl)methoxy)-1-methylpyridin-2(1H)-one]: 7.00 to 8.00.
With `Cn1ccc(OCC23CN(C(=O)Cc4ccc5c(c4)NC(=O)CO5)C(CNc4cccc5c(N)nccc45)(C2)C3)cc1=O` [Example 17, 6-(2-(1-(((1-aminoisoquinolin-5-yl)amino)methyl)-4-(((1-methyl-2-oxo-1,2-dihydropyridin-4-yl)oxy)methyl)-2-azabicyclo[2.1.1]hexan-2-yl)-2-oxoethyl)-2H-benzo[b][1,4]oxazin-3(4H)-one] the figure was 8.00 to 9.00; with `Cn1ccc(OCC23CN(C(=O)C4(c5ccccc5)CC4)C(CNc4cccc5c(N)nccc45)(C2)C3)cc1=O` [Example 18, 4-((1-(((1-aminoisoquinolin-5-yl)amino)methyl)-2-(1-phenylcyclopropane-1-carbonyl)-2-azabicyclo[2.1.1]hexan-4-yl)methoxy)-1-methylpyridin-2(1H)-one], 6.52 to 7.00.
With `Cn1ccc(CCC(=O)N2CC3(COc4ccn(C)c(=O)c4)CC2(CNc2cccc4c(N)nccc24)C3)cc1=O` [Example 19, 4-((1-(((1-aminoisoquinolin-5-yl)amino)methyl)-2-(3-(1-methyl-2-oxo-1,2-dihydropyridin-4-yl)propanoyl)-2-azabicyclo[2.1.1]hexan-4-yl)methoxy)-1-methylpyridin-2(1H)-one] the figure was 7.00 to 8.00.
`Cc1cc(OCC23CN(C(=O)CC45CCC(CC4)CC5)C(CNc4cccc5c(N)nccc45)(C2)C3)cc(=O)n1C` [Example 21, 4-((1-(((1-aminoisoquinolin-5-yl)amino)methyl)-2-(2-(bicyclo[2.2.2]octan-1-yl)acetyl)-2-azabicyclo[2.1.1]hexan-4-yl)methoxy)-1,6-dimethylpyridin-2(1H)-one]: the pIC50 was 7.00 to 8.00.
